Laboratory results reported in patent US6642178B2, “Adjuvant blend for enhancing efficacy of pesticides” (priority 2001, dated 2003).

How the values were obtained:
large crabgrass = assay: Large crabgrass control with nicosulfuron as influenced by adjuvants (greenhouse); assay type: in vivo; conditions: nicosulfuron 0.2 oz/A, no adjuvant, 3 WAT
From the text: TABLE 2 includes the results of assessment made 3 WAT (weeks after treatment). Visible injury rating is on a scale 0 to 100% with 0% representing no visible injury and 100% complete kill.

green foxtail = assay: Green foxtail control with nicosulfuron as influenced by adjuvants (greenhouse); assay type: in vivo; conditions: nicosulfuron 0.04 oz/A, no adjuvant; 2 WAT
From the text: TABLE 3 includes the results of assessment made 2 WAT (weeks after treatment).

In the case of `COc1cc(OC)nc(NC(=O)NS(=O)(=O)c2ncccc2C(=O)N(C)C)n1` [nicosulfuron], the “% fresh weight reduction” value (large crabgrass) is reported as 57%, the “% visible injury” value (large crabgrass; scale 0-100%) is reported as 31% and the “% fresh weight reduction” value (green foxtail) is reported as 0%.
